From EP0118571A1, “Inhibitor of aldose reductase” (Kaken Pharmaceutical Co., Ltd., priority 1983, dated 1984)
Where two headings read alike, the source gives them in different places.

What was measured:
bovine lens AR (BLAR) = target: T1, bovine lens AR (BLAR) (Bos taurus, UniProt P16116); experiment: Aldose reductase (AR) activity assay, bovine lens AR (NADPH oxidation, DL-glyceraldehyde substrate); format: biochemical; settings: for inhibition at 10 µM: inhibitor 10^-5M, read-out: Inhibition against enzyme activity (%) BLAR 10^-5M; for inhibition at 10 µM / inhibition at 1 µM / inhibition at 0.1 µM: 30°C, pH 6.2, 1 % propylene glycol; for inhibition at 1 µM: inhibitor 10^-6M, read-out: Inhibition against enzyme activity (%) BLAR 10^-6M; for inhibition at 0.1 µM: inhibitor 10^-7M, read-out: Inhibition against enzyme activity (%) BLAR 10^-7M
T1 construct: BLAR and RLAR were purified according to the method of Inagaki et al; from tissue; host or cells: bovine lens
Description: (§1) The inhibitory activitiy against AR of LARI was determined according to the following method. As reference examples, there were employed quercitrin and two flavone derivatives having a relatively similar structure to that of LARI, i.e. 6,4'-dihydroxy-5,7,8,3'-tetramethoxyflavone and 5,4'-dihydroxy-6,7,8,3'-tetramethoxyflavone (hereinafter referred to as "Ref-1" and "Ref-2", respectively).
(§2) Rat lenses were removed from eyes of rats of the Wistar strain weighing 200 to 250 g. Bovine eyes were obtained from a local abattoir, and the lenses were removed and frozen until needed.
(§3) All compounds to be subjected to examination were dissolved in propylene glycol being a useful solvent of low toxicity for some water-insoluble drugs. A 10^-3M solution was prepared and diluted to the desired concentration with propylene glycol. To the reaction mixture were added aliquots of the diluted solution to yield concentrations of 10^-8M to 10^-5M and a propylene glycol concentration of 1 %.
(§4) AR assays were conducted according to the procedure of Hayman and Kinoshita (J. Biol. Chem. 240, p. 877 (1965)), except for the addition of ammonium sulfate instead of lithium sulfate to the reaction mixture. Assays were performed at 30°C. in 0.1 M sodium phosphate buffer (pH 6.2) containing 0.4 M ammonium sulfate, 10 mM DL-glyceraldehyde and 0.16 mM NADPH and the enzyme (0.010 to 0.016 unit) in a total volume of 1.0 ml. The effects of inhibitors on the enzyme activity were determined in the reaction mixture containing 10 µl. of each inhibitor solution at the desired concentration. The blank reference to correct for non-specific reduction of NADPH contained all of the above compounds except the above DL-glyceraldehyde. The reaction was initiated by the addition of the above DL-glyceraldehyde, and the rate of NADPH oxidation was followed by recording the decrease in absorbance at 340 nm. on a Gilford model 250 spectrophotometer.
(§5) BLAR and RLAR were purified according to the method of Inagaki et al (Archs. Biochem. Biophys. 216, p. 337 (1982)). Briefly, a 40 to 75 % ammonium sulfate fraction was subjected to chromatography on DEAE-Sephacel, followed by two column chromatographic steps, i.e. affinity chromatography using Matrex gel red A and gel filtration on Sephadex G-75.
(§6) The concentration of inhibitor needed to elicit a 50 % inhibition (IC50) was determined according to the method of Kador et al (Docum. Ophthal. Proc. Series 18, p. 117 (1979)).

rat lens AR (RLAR) = target: T2, rat lens AR (RLAR) (Rattus norvegicus, UniProt P07943); experiment: Aldose reductase (AR) activity assay, rat lens AR (NADPH oxidation, DL-glyceraldehyde substrate); format: biochemical; settings: for inhibition at 10 µM: inhibitor 10^-5M, read-out: Inhibition against enzyme activity (%) RLAR 10^-5M; for inhibition at 10 µM / inhibition at 1 µM / inhibition at 0.1 µM: 30°C, pH 6.2, 1 % propylene glycol; for inhibition at 1 µM: inhibitor 10^-6M, read-out: Inhibition against enzyme activity (%) RLAR 10^-6M; for inhibition at 0.1 µM: inhibitor 10^-7M, read-out: Inhibition against enzyme activity (%) RLAR 10^-7M
T2 construct: BLAR and RLAR were purified according to the method of Inagaki et al; from tissue; host or cells: rat (Wistar) lens
Description: as §1, §2, §3, §4, §5, §6

[1] = read-out: IC50 (concentration of inhibitor needed to elicit 50 % inhibition) BLAR
[2] = purified RLAR, Table 2, read-out: IC50 (M) X 10^6 RLAR
[3] = read-out: IC50 (concentration of inhibitor needed to elicit 50 % inhibition) RLAR

SMILES | inhibition at 10 µM (bovine lens AR (BLAR)) [%] | inhibition at 1 µM (bovine lens AR (BLAR)) [%] | inhibition at 0.1 µM (bovine lens AR (BLAR)) [%] | IC50 (bovine lens AR (BLAR); [1]) [M] | inhibition at 10 µM (rat lens AR (RLAR)) [%] | inhibition at 1 µM (rat lens AR (RLAR)) [%] | inhibition at 0.1 µM (rat lens AR (RLAR)) [%] | IC50 (rat lens AR (RLAR); [2]) [M] | IC50 (rat lens AR (RLAR); [3]) [M] | inhibitory activity against AR, times as potent as that of quercitrin (rat lens AR (RLAR); relative to quercitrin, AR in general (RLAR and BLAR not distinguished)) | IC50 (bovine lens AR (BLAR); purified BLAR, Table 2, read-out: IC50 (M) X 10^6 BLAR) [M]
COc1c(OC)c(OC)c2c(=O)cc(-c3ccc(O)c(O)c3)oc2c1OC [LARI, 3',4'-dihydroxy-5,6,7,8-tetramethoxyflavone] | 100 | 90 | 37 | 1.8e-07 | 97 | 93 | 78 | 3e-08 | 3.6e-08 | about 17 times | –
COc1cc(-c2cc(=O)c3c(OC)c(O)c(OC)c(OC)c3o2)ccc1O [Ref-1, 6,4'-dihydroxy-5,7,8,3'-tetramethoxyflavone] | 63 | 19 | 0 | – | 58 | 22 | 6 | – | – | – | –
COc1cc(-c2cc(=O)c3c(O)c(OC)c(OC)c(OC)c3o2)ccc1O [Ref-2, 5,4'-dihydroxy-6,7,8,3'-tetramethoxyflavone] | 56 | 19 | 0 | – | 40 | 15 | 0 | – | – | – | –
C[C@@H]1O[C@@H](Oc2c(-c3ccc(O)c(O)c3)oc3cc(O)cc(O)c3c2=O)[C@H](O)[C@H](O)[C@H]1O [quercitrin] | 66 | 32 | 0 | 3.3e-06 | 84 | 56 | 38 | 4.9e-07 | 4.9e-07 | – | 3.3e-06
